Experimental data as given in the OligoGym collection.
HELM strings list units from the 5' end as sugar, base in round brackets, then linkage (d deoxyribose, r ribose, m 2'-O-methyl, p phosphodiester). Strings are as the collection lists them; they lack the last nucleoside at the 3' end of the tested compound. [moe] = 2'-O-(2-methoxyethyl) (MOE); [sp] = phosphorothioate linkage; [m5C] = 5-methylcytosine

Target: GFAP
Assay: mouse, dose not given
Conditions: ASO

Substance: RNA1{[moe](T)[sp].[moe](G)p.[moe]([m5C])p.[moe]([m5C])p.[moe]([m5C])[sp].d([m5C])[sp].d([m5C])[sp].d([m5C])[sp].d(G)[sp].d([m5C])[sp].d([m5C])[sp].d([m5C])[sp].d(T)[sp].d([m5C])[sp].d([m5C])[sp].[moe](T)p.[moe]([m5C])p.[moe]([m5C])[sp].[moe]([m5C])}$$$$ (last 3' nucleoside missing)
- 3 h FOB score: 4 score 0-7

Substance: RNA1{[moe](T)[sp].[moe](G)p.[moe](A)p.[moe](G)p.[moe](A)[sp].d(T)[sp].d(A)[sp].d(T)[sp].d([m5C])[sp].d(T)[sp].d(T)[sp].d(G)[sp].d(T)[sp].d(G)[sp].d(A)[sp].[moe]([m5C])p.[moe]([m5C])p.[moe](T)[sp].[moe](T)}$$$$ (last 3' nucleoside missing)
- 3 h FOB score: 6 score 0-7

Substance: RNA1{[moe](A)[sp].[moe]([m5C])p.[moe](A)p.[moe](T)p.[moe](T)p.[moe]([m5C])p.d(A)[sp].d([m5C])[sp].d(T)[sp].d(A)[sp].d(A)[sp].d(T)[sp].d(A)[sp].d(T)[sp].d(T)[sp].d(T)[sp].[moe](A)p.[moe](A)[sp].[moe]([m5C])}$$$$ (last 3' nucleoside missing)
- 3 h FOB score: 0 score 0-7

Substance: RNA1{[moe](G)[sp].[moe](G)p.[moe](A)p.[moe](G)p.[moe](G)[sp].d(G)[sp].d([m5C])[sp].d(G)[sp].d(A)[sp].d(T)[sp].d(G)[sp].d(T)[sp].d(A)[sp].d(G)[sp].d(T)[sp].[moe](A)p.[moe](G)p.[moe](G)[sp].[moe](T)}$$$$ (last 3' nucleoside missing)
- 3 h FOB score: 1 score 0-7

Substance: RNA1{[moe](T)[sp].[moe]([m5C])p.[moe](T)p.[moe](T)p.d(T)[sp].d(A)[sp].d(T)[sp].d(T)[sp].d(T)[sp].d(T)[sp].d(T)[sp].d([m5C])[sp].d([m5C])[sp].d(T)[sp].[moe]([m5C])p.[moe](A)p.[moe](G)p.[moe]([m5C])[sp].[moe](G)}$$$$ (last 3' nucleoside missing)
- 3 h FOB score: 1 score 0-7

Substance: RNA1{[moe](G)[sp].[moe](A)p.[moe](G)p.[moe](A)p.[moe](T)[sp].d(A)[sp].d(T)[sp].d([m5C])[sp].d(T)[sp].d(T)[sp].d(G)[sp].d(T)[sp].d(G)[sp].d(A)[sp].d([m5C])[sp].[moe]([m5C])p.[moe](T)p.[moe](T)[sp].[moe](G)}$$$$ (last 3' nucleoside missing)
- 3 h FOB score: 4 score 0-7

Substance: RNA1{[moe](A)[sp].[moe](A)p.[moe](T)p.[moe]([m5C])p.[moe](A)[sp].d(T)[sp].d(T)[sp].d(T)[sp].d([m5C])[sp].d(A)[sp].d(G)[sp].d(G)[sp].d(G)[sp].d([m5C])[sp].d([m5C])[sp].[moe](A)p.[moe](A)p.[moe](T)[sp].[moe](G)}$$$$ (last 3' nucleoside missing)
- 3 h FOB score: 5 score 0-7

Substance: RNA1{[moe](T)[sp].[moe]([m5C])p.[moe](T)p.[moe]([m5C])p.[moe](T)[sp].d([m5C])[sp].d([m5C])[sp].d(T)[sp].d(G)[sp].d(T)[sp].d(T)[sp].d(T)[sp].d([m5C])[sp].d(A)[sp].d(G)[sp].[moe]([m5C])p.[moe](A)p.[moe](T)[sp].[moe]([m5C])}$$$$ (last 3' nucleoside missing)
- 3 h FOB score: 3 score 0-7

Substance: RNA1{[moe]([m5C])[sp].[moe](A)p.[moe](G)p.[moe](T)p.d(A)[sp].d(T)[sp].d(T)[sp].d(A)[sp].d([m5C])[sp].d([m5C])[sp].d(T)[sp].d([m5C])[sp].d(T)[sp].d(A)[sp].[moe]([m5C])p.[moe](T)p.[moe](A)p.[moe](G)[sp].[moe](T)}$$$$ (last 3' nucleoside missing)
- 3 h FOB score: 1 score 0-7

Substance: RNA1{[moe]([m5C])[sp].[moe](G)p.[moe](G)p.[moe]([m5C])p.[moe](T)[sp].d([m5C])[sp].d(T)[sp].d([m5C])[sp].d(T)[sp].d([m5C])[sp].d(A)[sp].d(T)[sp].d([m5C])[sp].d(T)[sp].d(G)[sp].[moe](T)p.[moe]([m5C])p.[moe](A)[sp].[moe](A)}$$$$ (last 3' nucleoside missing)
- 3 h FOB score: 2 score 0-7

Substance: RNA1{[moe](G)[sp].[moe](G)p.[moe](T)p.[moe](G)p.[moe](A)[sp].d(G)[sp].d(T)[sp].d(T)[sp].d(T)[sp].d([m5C])[sp].d(T)[sp].d(T)[sp].d(G)[sp].d(T)[sp].d(T)[sp].[moe](A)p.[moe](G)p.[moe](T)[sp].[moe](T)}$$$$ (last 3' nucleoside missing)
- 3 h FOB score: 7 score 0-7

Substance: RNA1{[moe]([m5C])[sp].[moe](T)p.[moe](A)p.[moe](G)p.[moe](T)p.[moe]([m5C])p.d(A)[sp].d(G)[sp].d([m5C])[sp].d([m5C])[sp].d(T)[sp].d(G)[sp].d(G)[sp].d(T)[sp].d(T)[sp].d(A)[sp].[moe](G)p.[moe]([m5C])[sp].[moe]([m5C])}$$$$ (last 3' nucleoside missing)
- 3 h FOB score: 4 score 0-7

Substance: RNA1{[moe](G)[sp].[moe](T)p.[moe](G)p.[moe](T)p.[moe](A)[sp].d(T)[sp].d(T)[sp].d(A)[sp].d(G)[sp].d(G)[sp].d(A)[sp].d(T)[sp].d([m5C])[sp].[moe]([m5C])p.[moe]([m5C])p.[moe](A)[sp].[moe](T)}$$$$ (last 3' nucleoside missing)
- 3 h FOB score: 4 score 0-7

Substance: RNA1{[moe](G)[sp].[moe](G)p.[moe]([m5C])p.[moe](A)p.[moe](G)[sp].d(T)[sp].d(A)[sp].d(T)[sp].d(T)[sp].d(A)[sp].d([m5C])[sp].d([m5C])[sp].d(T)[sp].[moe]([m5C])p.[moe](T)p.[moe](A)[sp].[moe]([m5C])}$$$$ (last 3' nucleoside missing)
- 3 h FOB score: 0 score 0-7

Substance: RNA1{[moe](T)[sp].[moe]([m5C])p.[moe](A)p.[moe](G)p.[moe](T)p.d(T)[sp].d(T)[sp].d(T)[sp].d([m5C])[sp].d([m5C])[sp].d(T)[sp].d([m5C])[sp].d([m5C])[sp].d(A)[sp].d(G)[sp].[moe]([m5C])p.[moe](A)p.[moe](G)[sp].[moe]([m5C])}$$$$ (last 3' nucleoside missing)
- 3 h FOB score: 2 score 0-7

Substance: RNA1{[moe](G)[sp].[moe](G)p.[moe](T)p.[moe](T)p.[moe](G)[sp].d(G)[sp].d(T)[sp].d(T)[sp].d(T)[sp].d([m5C])[sp].d(A)[sp].d(T)[sp].d([m5C])[sp].d([m5C])[sp].d(T)[sp].[moe](G)p.[moe](G)p.[moe](A)[sp].[moe](G)}$$$$ (last 3' nucleoside missing)
- 3 h FOB score: 3 score 0-7

Substance: RNA1{[moe](A)[sp].[moe]([m5C])p.[moe]([m5C])p.[moe](T)p.[moe]([m5C])[sp].d([m5C])[sp].d([m5C])[sp].d(T)[sp].d(G)[sp].d(A)[sp].d([m5C])[sp].d([m5C])[sp].d(T)[sp].d(G)[sp].d(T)[sp].[moe]([m5C])p.[moe](T)p.[moe](A)[sp].[moe](T)}$$$$ (last 3' nucleoside missing)
- 3 h FOB score: 3 score 0-7

Substance: RNA1{[moe](A)[sp].[moe](G)p.[moe](T)p.[moe](G)p.[moe](A)[sp].d([m5C])[sp].d([m5C])[sp].d(T)[sp].d(G)[sp].d(T)[sp].d(G)[sp].d(A)[sp].d([m5C])[sp].d(T)[sp].d(A)[sp].[moe](T)p.[moe]([m5C])p.[moe](T)[sp].[moe](A)}$$$$ (last 3' nucleoside missing)
- 3 h FOB score: 6 score 0-7

Substance: RNA1{[moe](A)[sp].[moe](G)p.[moe](T)p.[moe]([m5C])p.[moe](A)[sp].d(G)[sp].d([m5C])[sp].d([m5C])[sp].d(T)[sp].d(G)[sp].d(G)[sp].d(T)[sp].d(T)[sp].d(A)[sp].d(G)[sp].[moe]([m5C])p.[moe]([m5C])p.[moe](T)[sp].[moe](T)}$$$$ (last 3' nucleoside missing)
- 3 h FOB score: 6 score 0-7

Substance: RNA1{[moe](T)[sp].[moe](A)p.[moe](T)p.[moe]([m5C])p.[moe](T)[sp].d(G)[sp].d(T)[sp].d(G)[sp].d([m5C])[sp].d(T)[sp].d(T)[sp].d(T)[sp].d(A)[sp].[moe](G)p.[moe](T)p.[moe](G)[sp].[moe](A)}$$$$ (last 3' nucleoside missing)
- 3 h FOB score: 3 score 0-7

Substance: RNA1{[moe](A)[sp].[moe]([m5C])p.[moe](T)p.[moe](A)p.[moe](G)p.[moe](T)p.d([m5C])[sp].d(A)[sp].d(G)[sp].d([m5C])[sp].d([m5C])[sp].d(T)[sp].d(G)[sp].d(G)[sp].d(T)[sp].d(T)[sp].[moe](A)p.[moe](G)[sp].[moe]([m5C])}$$$$ (last 3' nucleoside missing)
- 3 h FOB score: 4 score 0-7

Substance: RNA1{[moe](G)[sp].[moe](T)p.[moe](G)p.[moe]([m5C])p.[moe](T)[sp].d(T)[sp].d(T)[sp].d(T)[sp].d([m5C])[sp].d(T)[sp].d(G)[sp].d([m5C])[sp].d([m5C])[sp].d(T)[sp].d([m5C])[sp].[moe]([m5C])p.[moe](A)p.[moe](G)[sp].[moe](G)}$$$$ (last 3' nucleoside missing)
- 3 h FOB score: 2 score 0-7

Substance: RNA1{[moe](A)[sp].[moe](A)p.[moe](T)p.[moe]([m5C])p.[moe](A)[sp].d(A)[sp].d(G)[sp].d([m5C])[sp].d(T)[sp].d([m5C])[sp].d([m5C])[sp].d([m5C])[sp].d(A)[sp].d([m5C])[sp].d([m5C])[sp].[moe](T)p.[moe](G)p.[moe]([m5C])[sp].[moe]([m5C])}$$$$ (last 3' nucleoside missing)
- 3 h FOB score: 0 score 0-7

Substance: RNA1{[moe](T)[sp].[moe]([m5C])p.[moe](A)p.[moe](G)p.[moe]([m5C])p.d([m5C])[sp].d(T)[sp].d(G)[sp].d(G)[sp].d(T)[sp].d(T)[sp].d(A)[sp].d(G)[sp].d([m5C])[sp].d([m5C])[sp].[moe](T)p.[moe](T)p.[moe](T)[sp].[moe]([m5C])}$$$$ (last 3' nucleoside missing)
- 3 h FOB score: 4 score 0-7

Substance: RNA1{[moe]([m5C])[sp].[moe](T)p.[moe](T)p.[moe](T)p.[moe]([m5C])[sp].d(T)[sp].d([m5C])[sp].d(T)[sp].d([m5C])[sp].d([m5C])[sp].d(T)[sp].d(G)[sp].d(T)[sp].d(T)[sp].d(T)[sp].[moe]([m5C])p.[moe](A)p.[moe](G)[sp].[moe]([m5C])}$$$$ (last 3' nucleoside missing)
- 3 h FOB score: 3 score 0-7

Substance: RNA1{[moe](G)[sp].[moe](T)p.[moe](G)p.[moe]([m5C])p.[moe](T)[sp].d(G)[sp].d(A)[sp].d(G)[sp].d(A)[sp].d(A)[sp].d(T)[sp].d([m5C])[sp].d(A)[sp].d(A)[sp].d(G)[sp].[moe]([m5C])p.[moe](T)p.[moe]([m5C])[sp].[moe]([m5C])}$$$$ (last 3' nucleoside missing)
- 3 h FOB score: 0 score 0-7
